Drawing on patent US10399933B2, “Inhibitors of indoleamine-2,3-dioxygenase for the treatment of cancer” (BRISTOL-MYERS SQUIBB COMPANY, priority 2015, dated 2019), this text covers IC50 for 27 compounds.

The target of the assay is human IDO1 (Homo sapiens, UniProt P14902). The assay is described as follows: Human IDO-1 inhibitory activity in HEK cells (human IDO1/HEK293 cellular assay). The note with it: HEK human IDO-1 cellular assay; 500 nM reference standard = 100% inhibition, DMSO = 0%. On the set-up: expressed in transfected cells. The class given is cell-based. The method, then: They were cultured in medium (DMEM with 10% FBS) containing 1 mg/ml G418 for two weeks.
Chain of human IDO1 (P14902 whole entry): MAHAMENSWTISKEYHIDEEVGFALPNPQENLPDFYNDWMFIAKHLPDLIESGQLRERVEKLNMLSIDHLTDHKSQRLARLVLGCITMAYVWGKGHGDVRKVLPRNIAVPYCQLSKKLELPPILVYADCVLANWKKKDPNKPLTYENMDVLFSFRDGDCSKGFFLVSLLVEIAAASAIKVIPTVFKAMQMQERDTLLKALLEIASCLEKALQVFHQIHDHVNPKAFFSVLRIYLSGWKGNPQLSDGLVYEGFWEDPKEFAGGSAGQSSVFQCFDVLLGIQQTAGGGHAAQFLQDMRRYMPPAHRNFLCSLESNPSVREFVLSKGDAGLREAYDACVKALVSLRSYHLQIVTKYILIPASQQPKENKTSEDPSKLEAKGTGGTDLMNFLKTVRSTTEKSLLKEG
The human IDO1/HEK293 cells were seeded at 10,000 cells per 50 μL per well with RPMI/phenol red free media contains 10% FBS in a 384-well black wall clear bottom tissue culture plate (Matrix Technologies LLC) 100 nL of certain concentration of compound was then added to each well using ECHO liquid handling systems. The cells were incubated for 20 hours in 37° C. incubator with 5% CO2.
The compound treatments were stopped by adding trichloroacetic acid (Sigma-Aldrich) to a final concentration at 0.2%. The cell plate was further incubated at 50° C. for 30 minute. The equal volume supernatant (20 μL) and 0.2% (w/v) Ehrlich reagent (4-dimethylaminobenzaldehyde, Sigma-Aldrich) in glacial acetic acid were mixed in a new clear bottom 384-well plate. This plate was then incubated at room temperature for 30 minute. The absorbance at 490 nm was measured on Envision plate reader.

Compound `CCC(CC(=O)O)c1cc(F)c(N(CC(C)C)C2CCCCC2)c(NC(=O)Nc2ccc(Cl)cc2F)c1` (racemic) [Example 1090, 3-(3-(3-(4-chloro-2-fluorophenyl)ureido)-4-(cyclohexyl(isobutyl)amino)-5-fluorophenyl)pentanoic acid] showed an IC50 of less than 5 nM. Turning to `CCC(CC(=O)O)c1ccc(N(CC)C2CCCOC2)c(Nc2ccc(Cl)cc2)c1` (single isomer, unassigned) [Example 60 E1, 3-(3-((4-Chlorophenyl)amino)-4-(ethyl(tetrahydro-2H-pyran-3-yl)amino)phenyl)pentanoic Acid], the IC50 was less than 5 nM.

`CC[C@H](CC(=O)O)c1ccc(N2CCOC[C@@H]2C(C)C)c(Nc2ccc(F)cc2)c1` (single isomer, unassigned) [Example 90] yielded an IC50 of less than 50 nM. In the case of `CCOc1ncc(Nc2cc(C(CC)CC(=O)O)cc(F)c2N(CC(C)C)CC(C)C)cn1` (single isomer, unassigned) [Example 119, 3-(4-(diisobutylamino)-3-((2-ethoxypyrimidin-5-yl)amino)-5-fluorophenyl) pentanoic acid], the IC50 is less than 5 nM. As for `CCN(c1ccc([C@H](COC)CC(=O)O)cc1Nc1cnc(OC)nc1)C1CCOCC1` (single isomer, unassigned) [Example 387], the half-inhibitory concentration (IC50) is less than 50 nM. The compound `CCN(c1ccc([C@H](COC)CC(=O)O)cc1Nc1cnc(C)nc1)C1CCOCC1` (single isomer, unassigned) [Example 416] came in with an IC50 of more than 50 nM. `CCC(CC(=O)O)c1ccc(N(CC)C2CCOCC2)c(NC(=O)Nc2ccc(C)cc2)c1` (single isomer, unassigned) [Example 487 Enantiomer 2, 3-(4-(Ethyl(tetrahydro-2H-pyran-4-yl)amino)-3-(3-(p-tolyl)ureido)phenyl)pentanoic Acid] yielded a half-inhibitory concentration (IC50) of less than 5 nM. Compound `CCC(CC(=O)O)c1ccc(N(CC)C2CCOCC2)c(NC(=O)Nc2cnc(C)nc2)c1` (single isomer, unassigned) [Example 488 Enantiomer 2, 3-(4-(Ethyl(tetrahydro-2H-pyran-4-yl)amino)-3-(3-(2-methylpyrimidin-5-yl)ureido)phenyl)pentanoic Acid] displayed an IC50 of more than 50 nM. `CCN(c1ccc(C(CC(=O)O)c2ccccc2)cc1NC(=O)Nc1ccc(C)cc1)C1CCOCC1` (single isomer, unassigned) [Example 594, 3-(4-(Ethyl(tetrahydro-2H-pyran-4-yl)amino)-3-(3-(p-tolyl)ureido)phenyl)-3-phenylpropanoic Acid] displayed an IC50 of more than 50 nM.

Compound `CCN(c1ccc(C(CC(=O)O)c2ccccc2)cc1NC(=O)Nc1cc(C)on1)C1CCOCC1` (single isomer, unassigned) [Example 597, 3-(4-(ethyl(tetrahydro-2H-pyran-4-yl)amino)-3-(3-(5-methylisoxazol-3-yl)ureido)phenyl)-3-phenylpropanoic acid] registered an IC50 of more than 50 nM. The compound `CCN(c1ccc(C(C)CC(=O)O)cc1Nc1ccc(Cl)cc1)C1CCOCC1` (single isomer, unassigned) [Example 612 E2, 3-(3-((4-Chlorophenyl)amino)-4-(ethyl(tetrahydro-2H-pyran-4-yl)amino)phenyl)butanoic Acid] had an IC50 of less than 5 nM.

The compound `CCN(c1ccc(C(C)CC(=O)O)cc1NC(=O)Nc1ccc(Cl)cc1F)C1CCOCC1` (single isomer, unassigned) [Example 637 E2, 3-(3-(3-(4-Chloro-2-fluorophenyl)ureido)-4-(ethyl (tetrahydro-2H-pyran-4-yl)amino)phenyl)butanoic Acid] gave a half-maximal inhibitory concentration (IC50) of less than 5 nM. As for `CCCOc1ncc(Nc2cc(C(CC)CC(=O)O)ccc2N(CC(C)C)C2CCCCC2)cn1` (single isomer, unassigned) [Example 654, 3-(4-(cyclohexyl(isobutyl)amino)-3-((2-propoxypyrimidin-5-yl)amino)phenyl)pentanoic acid], the IC50 was less than 5 nM. On to `CCCN(CC1CC1)c1ccc(C(CC)CC(=O)O)cc1Nc1ccc(Cl)cc1` (single isomer, unassigned) [Example 656 E2, 3-(3-((4-Chlorophenyl)amino)-4-((cyclopropylmethyl) (propyl)amino)phenyl)pentanoic Acid], for which the IC50 was less than 5 nM.

In the case of `CCC(CC(=O)O)c1ccc(N2C[C@@H]3C[C@H]2CN3Cc2ccccc2)c(Nc2ccc(C)cc2)c1` (single isomer, unassigned) [Example 666 E2], the IC50 was less than 5 nM.

`CCC(CC(=O)O)c1ccc(N(CC(C)C)C(C)C)c(Nc2ccc3nc(C)sc3c2)c1` (single isomer, unassigned) [Example 730, 3-(4-(isobutyl(isopropyl)amino)-3-((2-methylbenzo[d]thiazol-6-yl)amino)phenyl)pentanoic acid] displayed an IC50 of more than 50 nM. On to `CCC(CC(=O)O)c1ccc(N2CCC[C@H]2C(C)(C)F)c(NC(=O)Nc2ccc(OC)cc2F)c1` (single isomer, unassigned) [Example 793], for which the IC50 was more than 50 nM. Under `CCC(CC(=O)O)c1ccc(N2CCC[C@H]2C(C)(C)O)c(NC(=O)Nc2cc(C)on2)c1` (single isomer, unassigned) [Example 831] stands more than 50 nM; under `Cc1ccc(CC(=O)Nc2cc(C(C)CC(=O)O)ccc2N(CC(C)C)C2CCOCC2)cc1` (single isomer, unassigned) [Example 967, 3-(4-(Isobutyl(tetrahydro-2H-pyran-4-yl)amino)-3-(2-(p-tolyl)acetamido)phenyl)butanoic Acid], less than 50 nM; under `CCC(CC(=O)O)c1cc(F)c(N(CC(C)C)CC(C)C)c(NC(=O)Cc2ccc(Cl)cc2F)c1` (single isomer, unassigned) [Example 1092 E1], less than 5 nM. The same measure for `CCC(CC(=O)O)c1cc(F)c(N(CC(C)C)CC(C)C)c(NC(=O)Cc2ccc(Cl)cc2F)c1` (single isomer, unassigned) [Example 1092 E2]: less than 5 nM. As to `CCC(CC(=O)O)c1ccc(N(CCC(C)C)C2CCCCC2)c(NC(=O)Cc2ccc(C)cc2)c1` (single isomer, unassigned) [Example 1099 E1], the concentration for half-maximal inhibition (IC50) is less than 50 nM. `CCC(CC(=O)O)c1ccc(N(CCC(C)C)C2CCCCC2)c(NC(=O)Cc2ccc(C)cc2)c1` (single isomer, unassigned) [Example 1099 E2] came in with an IC50 of less than 50 nM. For the compound `CCC(CC(=O)O)c1cc(F)c(N(CC(C)C)C2CCCCC2)c(NC(=O)Cc2ccc(C)cc2)c1` (single isomer, unassigned) [Example 1101 E1], the IC50 is less than 5 nM. As to `CCC(CC(=O)O)c1cc(F)c(N(CC(C)C)C2CCCCC2)c(NC(=O)Cc2ccc(C)cc2)c1` (single isomer, unassigned) [Example 1101 E2], the IC50 was less than 5 nM.

In turn, `CCC(CC(=O)O)c1ccc(N(CC(C)C)CC(C)C)c(NC(=O)Cc2ccc(C)cc2)c1` (single isomer, unassigned) [Example 1103 E2, 3-(4-(Diisobutylamino)-3-(2-(p-tolyl)acetamido)phenyl)pentanoic Acid] had an IC50 of less than 5 nM.

`CCOc1ccc(NC(=O)Nc2cc(C(COC)CC(=O)O)cc(F)c2N(CC(C)C)CC(C)C)cc1` (single isomer, unassigned) [Example 1185, 3-(4-(diisobutylamino)-3-(3-(4-ethoxyphenyl)ureido)-5-fluorophenyl)-4-methoxybutanoic acid] displayed an IC50 of less than 5 nM.
